Data set [1] concerns Solanum nigrum (SOLNI). The data set is described as follows: Post-emergence biological efficacy (percentage damage). The class given is in vivo. Particulars: Solanum nigrum, 312 h, dose 1,000 g/ha, evaluated after 13 days, 100=total damage, 0=no damage. The procedure, abridged:
(§1)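 Applied rates: 250 or 1000 g/ha, sprayed from acetone/water (50:50) with 0.5% Tween 20 onto plants 8 days after sowing. Visual damage rating 13 days later on a 0–100 scale.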

The test system of data set [2] is Ipomea hederaceae (IPOHE). Described as above. It counts as in vivo. The following applies: Ipomoea hederacea, 312 h, dose 1,000 g/ha, evaluated after 13 days, 100=total damage, 0=no damage. The procedure, abridged: as §1
In data set [3] the test system is Setaria faberi (SETFA). Described as above. Particulars: Setaria faberi, 312 h, dose 1,000 g/ha, evaluated after 13 days, 100=total damage, 0=no damage. It counts as in vivo. The procedure, abridged:
as §1

Data set [4] deals with Amaranthus retoflexus (AMARE). Described as above. It counts as in vivo. Particulars: Amaranthus retroflexus, 312 h, dose 1,000 g/ha, evaluated after 13 days, 100=total damage, 0=no damage. The procedure, abridged:
as §1

In data set [5] the test system is Alopecurus myosuroides (ALOMY). Described as above. The class given is in vivo. Particulars: Alopecurus myosuroides, 312 h, dose 1,000 g/ha, evaluated after 13 days, 100=total damage, 0=no damage. The procedure, abridged:
as §1

Data set [6] relates to Echinochloa crus-galli (ECHCG). Described as above. It counts as in vivo. Particulars: Echinochloa crus-galli, 312 h, dose 1,000 g/ha, evaluated after 13 days, 100=total damage, 0=no damage. The procedure, abridged:
as §1

For data set [7], the system named is Solanum nigrum (SOLNI). The data set is described as follows: Pre-emergence biological efficacy (percentage damage). The class given is in vivo. The following applies: Solanum nigrum, 312 h, dose 1,000 g/ha, evaluated after 13 days, 100=total damage, 0=no damage. The procedure, abridged:
(§2)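 Pre-emergence spray, 250 or 1000 g/ha, acetone/water 50:50 + 0.5% Tween 20, applied 1 d after sowing in standard soil. Glasshouse 24/16 °C, 14 h light, 65% RH, watered twice daily. Scored day 13, 0–100% damage.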

The subject of data set [8] is Ipomea hederaceae (IPOHE). Described as above. It counts as in vivo. Particulars: Ipomoea hederacea, 312 h, dose 1,000 g/ha, evaluated after 13 days, 100=total damage, 0=no damage. The procedure, abridged: as §2
Data set [9] relates to Setaria faberi (SETFA). The data set is described as above. It counts as in vivo. The following applies: Setaria faberi, 312 h, dose 1,000 g/ha, evaluated after 13 days, 100=total damage, 0=no damage. The procedure, abridged:
as §2

The test system of data set [10] is Amaranthus retoflexus (AMARE). Described as above. The class given is in vivo. Particulars: Amaranthus retroflexus, 312 h, dose 1,000 g/ha, evaluated after 13 days, 100=total damage, 0=no damage. The procedure, abridged: as §2
Data set [11] has as its system Alopecurus myosuroides (ALOMY). The description is as above. The following applies: Alopecurus myosuroides, 312 h, dose 1,000 g/ha, evaluated after 13 days, 100=total damage, 0=no damage. It counts as in vivo. The procedure, abridged:
as §2

Data set [12] relates to Echinochloa crus-galli (ECHCG). The data set is described as above. It counts as in vivo. Particulars: Echinochloa crus-galli, 312 h, dose 1,000 g/ha, evaluated after 13 days, 100=total damage, 0=no damage. The procedure, abridged: as §2

The structures appear in SMILES notation.

In the case of `C=Cc1c(C(=O)OC)nc(C2CC2)nc1[S+](C)[O-]` (stereo not shown) [Compound 2-401, 2-cyclopropyl-5-ethenyl-6-methoxycarbonyl-4-methylsulphinyl-pyrimidine], the melting point – broadly, the temperature, or range, at which the solid turns liquid – is 74 to 75 °C. For the same molecule, the pest or weed control – broadly, how far the test organism was held down – at 1000 g/ha in the data set with Solanum nigrum (SOLNI) [1] came to 80%. Further, in data set [2], the pest or weed control at 1000 g/ha stood at 70%. Also, in the data set on Setaria faberi (SETFA) [3], the pest or weed control at 1000 g/ha turned out to be 0%. The molecule further gave a pest or weed control at 1000 g/ha in data set [4] of 70%. The molecule also displayed a pest or weed control at 1000 g/ha in [5] of 0%. The pest or weed control at 1000 g/ha in data set [6] is 0%. This molecule also had a pest or weed control at 1000 g/ha with Solanum nigrum (SOLNI) [7] of 10%. In [8], this molecule gave a pest or weed control at 1000 g/ha of 70%. This molecule also returned a pest or weed control at 1000 g/ha with Setaria faberi (SETFA) [9] of 0%. The pest or weed control at 1000 g/ha in [10] stood at 70%. In data set [11], the pest or weed control at 1000 g/ha was found to be 0%. This molecule also registered a pest or weed control at 1000 g/ha in [12] of 0%.
Regarding `C=Cc1c(OC)nc(-c2ccc(Cl)c(OC)c2F)nc1C(=O)OC` [Compound 27-398, 2-(4-chloro-2-fluoro-3-methoxyphenyl)-5-ethenyl-4-methoxy-6-methoxycarbonyl-pyrimidine], the melting point was in the range of 107 to 108 °C. In the data set on Solanum nigrum (SOLNI) [1], the pest or weed control at 1000 g/ha was found to be 20%. In addition, in [2], the pest or weed control at 1000 g/ha turned out to be 40%. In the data set on Setaria faberi (SETFA) [3], the pest or weed control at 1000 g/ha came to 0%. This molecule registered a pest or weed control at 1000 g/ha in [4] of 0%. The pest or weed control at 1000 g/ha in data set [5] turned out to be 0%. Also, in [6], the pest or weed control at 1000 g/ha was determined as 0%. The pest or weed control at 1000 g/ha in the data set with Solanum nigrum (SOLNI) [7] was 0%. The same molecule gave a pest or weed control at 1000 g/ha in [8] of 0%. In addition, in the data set with Setaria faberi (SETFA) [9], the pest or weed control at 1000 g/ha came out at 0%. The molecule further registered a pest or weed control at 1000 g/ha in [10] of 0%. In data set [11], the pest or weed control at 1000 g/ha is 0%. This molecule also gave a pest or weed control at 1000 g/ha in [12] of 0%.
Molecule `COC(=O)c1nc(-c2ccc(Cl)c(N(C)C)c2F)nc(N)c1C1CC1` [Compound 33-58, 4-amino-2-(4-chloro-3-dimethylamino-2-fluorophenyl)-5-cyclopropyl-6-methoxycarbonylpyrimidine] showed a melting point of 156 to 158 °C. Moreover, the pest or weed control at 1000 g/ha in the data set on Solanum nigrum (SOLNI) [1] was 10%. The molecule further gave a pest or weed control at 1000 g/ha in data set [2] of 0%. The same molecule yielded a pest or weed control at 1000 g/ha in the data set with Setaria faberi (SETFA) [3] of 60%. The pest or weed control at 1000 g/ha in data set [4] came to 10%. The pest or weed control at 1000 g/ha in data set [5] was determined as 10%. The same molecule returned a pest or weed control at 1000 g/ha in data set [6] of 10%. The same molecule gave a pest or weed control at 1000 g/ha in the data set with Solanum nigrum (SOLNI) [7] of 0%. For the same molecule, in data set [8], the pest or weed control at 1000 g/ha is 0%. Further, the pest or weed control at 1000 g/ha with Setaria faberi (SETFA) [9] stood at 0%. The molecule further returned a pest or weed control at 1000 g/ha in [10] of 0%. The molecule also showed a pest or weed control at 1000 g/ha in [11] of 0%. Besides, in data set [12], the pest or weed control at 1000 g/ha was found to be 0%.
In turn, `C=Cc1c(N)nc(-c2ccc(C)cc2)nc1C(=O)OC` [Compound 36-61, 4-amino-5-ethenyl-6-methoxycarbonyl-2-(4-methylphenyl)-pyrimidine] returned a melting point of 122 to 123 °C. The same molecule gave a pest or weed control at 1000 g/ha with Solanum nigrum (SOLNI) [1] of 80%. The pest or weed control at 1000 g/ha in data set [2] came to 90%. In the data set on Setaria faberi (SETFA) [3], the pest or weed control at 1000 g/ha came out at 80%. For the same molecule, the pest or weed control at 1000 g/ha in [4] came to 100%. Besides, the pest or weed control at 1000 g/ha in [5] is 70%. In [6], this molecule had a pest or weed control at 1000 g/ha of 90%. The molecule further registered a pest or weed control at 1000 g/ha in the data set on Solanum nigrum (SOLNI) [7] of 100%. The molecule further came in with a pest or weed control at 1000 g/ha in [8] of 100%. The pest or weed control at 1000 g/ha in the data set on Setaria faberi (SETFA) [9] came out at 80%. Also, the pest or weed control at 1000 g/ha in data set [10] was 100%. Also, the pest or weed control at 1000 g/ha in data set [11] amounted to 70%. This molecule returned a pest or weed control at 1000 g/ha in [12] of 90%.

The values above are taken from patent US20120053053A1, “PYRIMIDINE DERIVATIVES AND THEIR USE AS HERBICIDES” (SYNGENTA CROP PROTECTION, LLC, priority 2009, published 2012).
